The values below come from ChEMBL document CHEMBL3044845, “Synthesis and biological activity studies of furan derivatives” (2010).

Activity calls are given as the source filed them. The calls are words filed in the database; no cut-off is given here.

Assay [1] relates to Escherichia coli. Nature of the assay: Antibacterial activity against Escherichia coli ATCC […] after 24 hr by disk diffusion method. In kind it is functional. In general terms: In agar diffusion tests the substance spreads into inoculated agar from a disc or well.
The test system of assay [2] is Micrococcus luteus. Nature of the assay: Antibacterial activity against Micrococcus luteus NRRLB 4375 after 24 hr by disk diffusion method. In kind it is functional.
Assay [3] has as its system Bacillus subtilis. Nature of the assay: Antibacterial activity against Bacillus subtilis RSKK 244 at 5 mg/ml after 24 hr by disk diffusion method. In kind it is functional. To be noted: for zone of inhibition at 5000 µg/mL: RSKK 244, 24 h, read-out: DIZ.
Assay [4] concerns Staphylococcus aureus. Description: Antibacterial activity against Staphylococcus aureus ATCC 25923 at 5 mg/ml after 24 hr by disk diffusion method. To be noted: ATCC 25923, 24 h, read-out: DIZ. Format: functional.
Assay [5] concerns Listeria monocytogenes. Nature of the assay: Antibacterial activity against Listeria monocytogenes ATCC 7644 at 5 mg/ml after 24 hr by disc diffusion method. To be noted: for zone of inhibition at 5000 µg/mL: ATCC 7644, 24 h, read-out: DIZ. In kind it is functional.
Assay [6] deals with Salmonella enteritidis. Description: Antibacterial activity against Salmonella enterica subsp. enterica serovar Enteritidis ATCC 1376 at 5 mg/ml after 24 hr by disk diffusion method. In kind it is functional. To be noted: for zone of inhibition at 5000 µg/mL: ATCC 1376, 24 h, read-out: DIZ.
The subject of assay [7] is Escherichia coli. Description: Antibacterial activity against Escherichia coli ATCC […] at 5 mg/ml after 24 hr by disk diffusion method. In kind it is functional. To be noted: read-out: DIZ.
The subject of assay [8] is Priestia megaterium. Description: Antibacterial activity against Bacillus megaterium ATCC 6633 at 5 mg/ml after 24 hr by disk diffusion method. Format: functional.
The subject of assay [9] is Micrococcus luteus. Nature of the assay: Antibacterial activity against Micrococcus luteus NRRLB 4375 at 5 mg/ml after 24 hr by disk diffusion method. In kind it is functional. To be noted: for zone of inhibition at 5000 µg/mL: NRRLB 4375, 24 h, read-out: DIZ.
Assay [10] relates to Pseudomonas aeruginosa. Nature of the assay: Antibacterial activity against Pseudomonas aeruginosa ATCC […] at 5 mg/ml after 24 hr by disk diffusion method. Format: functional. To be noted: for zone of inhibition at 5000 µg/mL: read-out: DIZ.
Assay [11] deals with Priestia megaterium. Nature of the assay: Antibacterial activity against Bacillus megaterium ATCC 6633 after 24 hr by disk diffusion method. In kind it is functional.
Assay [12] relates to Bacillus subtilis. Description: Antibacterial activity against Bacillus subtilis RSKK 244 after 24 hr by disk diffusion method. In kind it is functional.
In assay [13] the test system is Staphylococcus aureus. Nature of the assay: Antibacterial activity against Staphylococcus aureus ATCC 25923 after 24 hr by disk diffusion method. Format: functional.
Assay [14] has as its system Listeria monocytogenes. Nature of the assay: Antibacterial activity against Listeria monocytogenes ATCC 7644 after 24 hr by disk diffusion method. In kind it is functional, organism-based.
Assay [15] concerns Salmonella enteritidis. Nature of the assay: Antibacterial activity against Salmonella enterica subsp. enterica serovar Enteritidis ATCC 1376 after 24 hr by disk diffusion method. In kind it is functional, organism-based.
In assay [16] the test system is Pseudomonas aeruginosa. Description: Antibacterial activity against Pseudomonas aeruginosa ATCC […] after 24 hr by disk diffusion method. Format: functional, organism-based.

On to `CC1(C)S[C@@H]2[C@H](NC(=O)Cc3ccccc3)C(=O)N2[C@H]1C(=O)O` [PENICILLIN G], for which the results for the “diameter of the inhibition zone (DIZ)” value in assay [1] and in assay [2] were 19 mm and 31 mm, respectively.

For the compound `CN(C)[C@@H]1C(O)=C(C(N)=O)C(=O)[C@@]2(O)C(O)=C3C(=O)c4c(O)cccc4[C@@](C)(O)[C@H]3C[C@@H]12` [TETRACYCLINE], the “diameter of the inhibition zone (DIZ)” value in [2] is listed as 9 mm.

With `CCC1C(C#N)=C(c2ccccc2)OC1(c1ccccc1)c1ccccc1` (stereo not given), the zone of inhibition at 5000 µg/mL in [3] is 11 mm; in [4], 13 mm; in [5], 11 mm; in assay [6], 13 mm; in [7] it was 11 mm; in [9] it was 13 mm. The zone of inhibition at 5000 µg/mL in assay [10] was found to be 12 mm. Also, the “diameter of the inhibition zone (DIZ)” value in assay [8] was “inactive”.

With `CCC1C(C#N)=C(c2cccs2)OC1(c1ccccc1)c1ccccc1` (stereo not given), the “diameter of the inhibition zone (DIZ)” value in [3], in assay [5], in assay [6], in assay [8], in assay [9] and in assay [10] was “inactive” in each case. In addition, the zone of inhibition at 5000 µg/mL in assay [4] was found to be 8 mm; in assay [7], 10 mm.

Consider `CCCC1(c2ccccc2)OC(c2ccccc2)=C(C#N)C1c1ccccc1` (stereo not given), for which the zone of inhibition at 5000 µg/mL amounted to 10 mm in assay [3]; 14 mm in assay [4]; 18 mm in assay [5]; 16 mm in [6]; 12 mm in [7]; 13 mm in assay [9]. For the same compound, in [10], the zone of inhibition at 5000 µg/mL worked out at 10 mm. In [8], the “diameter of the inhibition zone (DIZ)” value is “inactive”.

Turning to `CCCC1(c2ccccc2)OC(c2cc3ccccc3o2)=C(C#N)C1c1ccccc1` (stereo not given), the zone of inhibition at 5000 µg/mL in assay [3] was determined as 11 mm; in assay [4], 12 mm; in assay [5], 13 mm; in assay [6], 14 mm; in [7], 10 mm; in assay [9], 13 mm. Further, in assay [10], the zone of inhibition at 5000 µg/mL was determined as 10 mm. Besides, the “diameter of the inhibition zone (DIZ)” value in assay [8] was “inactive”.

With `CC1(C)S[C@@H]2[C@H](NC(=O)[C@H](N)c3ccccc3)C(=O)N2[C@H]1C(=O)O` [AMPICILLIN], the “diameter of the inhibition zone (DIZ)” value in assay [11] stood at 10 mm; in assay [2], 28 mm; in assay [12], 15 mm; in assay [13], 9 mm.

Take GENTAMICIN: the inhibition zone (IZ) in assay [14] amounted to 10 mm; in assay [15] it was 9 mm; in [16], 16 mm.

Regarding `CCC1C(C#N)=C(c2ccco2)OC1(c1ccccc1)c1ccccc1` (stereo not given), the zone of inhibition at 5000 µg/mL came to 11 mm in assay [3]; 10 mm in assay [4]; 16 mm in assay [5]; 10 mm in [6]; 13 mm in assay [7]; 10 mm in assay [8] (ATCC 6633, 24 h, read-out: DIZ). Further, the zone of inhibition at 5000 µg/mL is 14 mm in [9] and 12 mm in assay [10].
